Broadly, the MIC is the smallest concentration in the dilution series that meets the test's criterion for growth inhibition.

Values after ≈ are worked out from the molar mass of the structure shown.

The first test deals with Staphylococcus aureus CIP52.1. Put plainly: Minimum inhibitory concentration (MIC), NCCLS dilution antimicrobial susceptibility test. The test is classed as cell-based. To be noted: Staphylococcus aureus, CIP52, Table II, Example 1; mean of at least three tests; bacteriostatic effect; read-out: MIC RESULTS MEAN. The source says:
The bacterium Staphylococcus aureus CIP52.1 may be used in order to determine for each test compound the minimum inhibitory concentration for the bacterium, or MIC, expressed in μM.
The technique employed to determine the minimum inhibitory concentration or MIC was that described in the publication entitled “National committee for clinical laboratory standards” Vol. 13, No. 25, December 1993; Methods for dilution antimicrobial susceptibility tests for bacteria that grow aerobically-third edition, approved standard”. This minimum inhibitory concentration gives an indication as to the bacteriostatic effect of the test compounds, i.e., the capacity of these compounds to stop the proliferation of the bacterium.
Each compound of the invention was tested at least three times. The average of the test results was calculated, along with the standard deviation. The reference compound used was gentamycin.
The technique employed to determine the MIC values was the same as that described in Example 1.
Each compound of the invention and each comparative example taken from the Pierre Fabre patent application No. FR-2,736,548 was tested at least three times. The mean of the test results was calculated, along with the standard deviation. The reference compound used was gentamycin.
`COc1cccc(C=CC#Cc2ccc(C(=O)O)cc2)c1-c1ccc(C)cc1` [Compound 3, 4-[4-(6-Methoxy-4′-methylbiphenyl-2-yl)but-3-en-1-ynyl]benzoic acid]: the MIC was determined as 1.04 µM (≈ 0.383 µg/mL).
In the case of `Cc1cc(O)c(C23CC4CC(CC(C4)C2)C3)cc1-c1ccc2cc(C(=O)O)ccc2c1` [Compound 4, 6-[2-Methyl-4-hydroxy-5-(1-adamantyl)phenyl]-2-naphthoic acid], the minimal inhibitory concentration (MIC) is 1.25 µM (≈ 0.516 µg/mL).
On the same count and under the same terms, the result for `Cc1ccc(-c2ccccc2C=CC#Cc2ccc(C(=O)O)c(O)c2)cc1` [Compound 6, 2-Hydroxy-4-[4-(4′-methylbiphenyl-2-yl)but-3-en-1-ynyl]benzoic acid] reads 1.25 µM (≈ 0.443 µg/mL); that for `Cc1ccc(-c2ccc(C)cc2C=CC#Cc2ccc(C(=O)O)cc2)cc1` [Compound 8, 4-[4-(4,4′-Dimethylbiphenyl-2-yl)but-3-en-1-ynyl]benzoic acid], 1.66 µM (≈ 0.585 µg/mL).
With `O=C(O)c1ccc2cc(-c3cc(Br)c(O)c(C45CC6CC(CC(C6)C4)C5)c3)ccc2c1` [Compound 11, 6-(3-Adamantan-1-yl-5-bromo-4-hydroxyphenyl)-naphthalene-2-carboxylic acid], the MIC turned out to be 2.08 µM (≈ 0.993 µg/mL).
The same measure, in the same setting: the result for `Cc1ccc(-c2c(C)cccc2C=CC#Cc2ccc(C(=O)O)cc2)cc1` [Compound 12, 4-[4-(6,4′-Dimethylbiphenyl-2-yl)but-3-en-1-ynyl]benzoic acid] reads 2.08 µM (≈ 0.733 µg/mL); that for `CCCCCCCCCON=C(C(=O)Nc1ccc(C(=O)O)cc1)c1ccc2c(c1)C(C)(C)CCC2(C)C` [Compound 17, 4-[2-Nonyloxyimino-2-(5,5,8,8-tetramethyl-5,6,7,8-tetrahydronaphthalen-2-yl)acetylamino]benzoic acid], 2.5 µM (≈ 1.3 µg/mL).
For `COCCOCOc1ccc(C#Cc2ccc(C(=O)O)c(O)c2)cc1C12CC3CC(CC(C3)C1)C2` [Compound 18, 4-[3-Adamantan-1-yl-4-(2-methoxyethoxymethoxy)-phenylethynyl]-2-hydroxybenzoic acid], the minimum inhibitory concentration (MIC) was determined as 2.5 µM (≈ 1.19 µg/mL).
`CC1(C)CCC(C)(C)c2cc3cc(-c4ccc(CO)c(O)c4)ccc3cc21` [Compound 20, 2-Hydroxymethyl-5-(5,5,8,8-tetramethyl-5,6,7,8-tetrahydroanthracen-2-yl)phenol]: the MIC came to 2.5 µM (≈ 0.901 µg/mL).
The same measure, in the same setting: the result for `CCCCOC(c1ccc2c(c1)C(C)(C)CCC2(C)C)c1ccc2cc(C(=O)O)ccc2c1` (centres unmarked) [Compound 24, 6-[Butoxy-(5,5,8,8-tetramethyl-5,6,7,8-tetrahydronaphthalen-2-yl)methyl]naphthalene-2-carboxylic acid] reads 3.33 µM (≈ 1.48 µg/mL).
On the same count and under the same terms, the result for `CCCCCCCCCC(C)(C)c1cc(C(=O)Nc2ccc(C(=O)O)cc2)ccc1OC` [Compound 25, 4-[3-(1,1-Dimethyldecyl)-4-methoxybenzoylamino]-benzoic acid] reads 3.33 µM (≈ 1.46 µg/mL); that for `CCCCCCOc1ccc(C(=O)Nc2ccc(C(=O)O)cc2)cc1C12CC3CC(CC(C3)C1)C2` [Compound 26, 4-(3-Adamantan-1-yl-4-hexyloxybenzoylamino)benzoic acid], 3.33 µM (≈ 1.58 µg/mL).
Take `CC1(C)CCC(C)(C)c2cc3cc(-c4ccc(C(=O)O)c(O)c4)ccc3cc21` [Compound 28, 2-Hydroxy-4-(5,5,8,8-tetramethyl-5,6,7,8-tetrahydroanthracen-2-yl)benzoic acid]: the MIC amounted to 3.33 µM (≈ 1.25 µg/mL).
Still for that read-out and setting: the result for `O=C(O)c1ccc2oc(-c3ccc(O)c(C45CC6CC(CC(C6)C4)C5)c3)cc2c1` [Compound 29, 2-(3-Adamantan-1-yl-4-hydroxyphenyl)benzofuran-5-carboxylic acid] reads 3.33 µM (≈ 1.29 µg/mL); that for `CCCCCCCC/C=C(\C(=O)Nc1ccc(C(=O)O)cc1)c1ccc2c(c1)C(C)(C)CCC2(C)C` [Compound 36, 4-[(Z)-2-(5,6,7,8-tetrahydro-5,5,8,8-tetramethyl-2-naphthyl)-2-undecenamido]benzoic acid], 4.16 µM (≈ 2.04 µg/mL).
On to `CCCCCCCON=C(C(=O)Nc1ccc(C(=O)O)cc1)c1ccc2c(c1)C(C)(C)CCC2(C)C` [Compound 39, 4-[2-Heptyloxyimino-2-(5,5,8,8-tetramethyl-5,6,7,8-tetrahydronaphthalen-2-yl)acetylamino]-benzoic acid], for which the MIC worked out at 5 µM (≈ 2.46 µg/mL).
In the case of `CC1(C)CCC(C)(C)c2cc(Oc3ccc4cc(C(N)=O)ccc4c3)ccc21` [Compound 40, 6-(5,5,8,8-Tetramethyl-5,6,7,8-tetrahydronaphthalen-2-yloxy)naphthalene-2-carboxylic acid amide], the minimum inhibitory concentration (MIC) stood at 5 µM (≈ 1.87 µg/mL).
Same read-out and setting: the result for `COc1cc(C)c(-c2cccc(C=CC(=O)O)c2)cc1C12CC3CC(CC(C3)C1)C2` [Compound 45, 3-(5′-Adamantan-1-yl-4′-methoxy-2′-methylbiphenyl-3-yl)acrylic acid] reads 5 µM (≈ 2.01 µg/mL).

Staying with this test, now noted: Staphylococcus aureus, CIP52, read-out: MIC RESULTS MEAN.
With `Cc1cc2c(cc1[Se]C#Cc1ccc(C(=O)O)c(O)c1)C(C)(C)CCC2(C)C` [Compound 22, 2-Hydroxy-4-(3,5,5,8,8-pentamethyl-5,6,7,8-tetrahydronaphthalen-2-ylselanylethynyl)benzoic acid], the MIC came to 2.5 µM (≈ 1.1 µg/mL).
Take `Cc1cc2c(cc1[Se]C#Cc1ccc(C(=O)O)cc1)C(C)(C)CCC2(C)C` [Compound 33, 4-(3,5,5,8,8-Pentamethyl-5,6,7,8-tetrahydronaphthalen-2-ylselanylethynyl)benzoic acid]: the minimum inhibitory concentration (MIC) was determined as 3.33 µM (≈ 1.42 µg/mL).
The same measure, in the same setting: the result for `CC1(C)CCC(C)(C)c2cc([Se]C#Cc3ccc(C(=O)O)c(O)c3)ccc21` [Compound 42, 2-Hydroxy-4-(5,5,8,8-tetramethyl-5,6,7,8-tetrahydronaphthalen-2-ylselanylethynyl)benzoic acid] reads 5 µM (≈ 2.14 µg/mL).

Staying with this test, now noted: Table II, Example 1; mean of at least three tests; bacteriostatic effect; read-out: MIC RESULTS MEAN.
With `COc1ccc(C#Cc2cc(C(=O)O)cs2)cc1C12CC3CC(CC(C3)C1)C2` [Compound 7], the MIC is listed as 1.66 µM (≈ 0.652 µg/mL).
On the same count and under the same terms, the same measure for `CC1(C)CCC(C)(C)c2cc(-c3cc(-c4ccc(C(=O)O)cc4)ccc3-c3ccc(O)cc3)ccc21` [Compound 9, 4-Hydroxy-2′(5,5,8,8-tetramethyl-5,6,7,8-tetrahydronaphthalen-2-yl) [1,1′,4′,1″]terphenyl-4″-carboxylic acid]: 1.66 µM (≈ 0.791 µg/mL).
The same measure, in the same setting: the same measure for `CC1(C)CCC(C)(C)c2cc(-c3cc(-c4ccc(C(=O)O)cc4O)ccc3-c3ccccc3)ccc21` [Compound 10, 2″-Hydroxy-2′-(5,5,8,8-tetramethyl-5,6,7,8-tetrahydronaphthalen-2-yl) [1,1′,4′,1″]terphenyl-4″-carboxylic acid]: 1.66 µM (≈ 0.791 µg/mL).
As for `CC1(C)CCSc2ccc(-c3cc(-c4ccc(C(=O)O)cc4)ccc3-c3ccccc3)cc21` [Compound 13, 2′-(4,4-Dimethylthiochroman-6-yl) [1,1′,4′,1″]terphenyl-4″-carboxylic acid], the minimal inhibitory concentration (MIC) worked out at 2.08 µM (≈ 0.937 µg/mL).
`CC(CO)COc1ccc(C#Cc2ccc(C(=O)O)cc2)cc1C12CC3CC(CC(C3)C1)C2` (centres unmarked) [Compound 19, 4-[[3-(1-Adamantyl)-4-[(2-methyl-3-hydroxypropyloxy)phenyl]ethynyl]]benzoic acid]: the MIC amounted to 2.50 µM (≈ 1.11 µg/mL).
Take `COc1cc2c(cc1-c1cc(-c3ccc(C(=O)O)cc3)ccc1-c1ccccc1)C(C)(C)CCC2(C)C` [Compound 23, 2′-(3-Methoxy-5,5,8,8-tetramethyl-5,6,7,8-tetrahydronaphthalen-2-yl) [1,1′,4′,1″]terphenyl-4″-carboxylic acid]: the minimal inhibitory concentration (MIC) came to 2.50 µM (≈ 1.23 µg/mL).
Regarding `OCc1ccc2cc(-c3ccc(O)c(C45CC6CC(CC(C6)C4)C5)c3)ccc2c1` [Compound 27, 6-[3-(1-Adamantyl)-4-hydroxyphenyl]-2-napthylmethanol], the MIC came to 3.33 µM (≈ 1.28 µg/mL).
Still for that read-out and setting: the same measure for `CCCOc1ccc(-c2ccc3c(c2)C(C)(C)CCC3(C)C)cc1-c1ccc(C(=O)O)cc1` [Compound 38, 2′-Propoxy-5′-(5,5,8,8-tetramethyl-5,6,7,8-tetrahydronaphthalen-2-yl)bipheny-1-4-carboxylic acid]: 4.16 µM (≈ 1.84 µg/mL).
As to `COc1ccc(-c2ccc3cc(C(=O)NCCN(C)C)ccc3c2)cc1C12CC3CC(CC(C3)C1)C2` [Compound 41, (2-Dimethylaminoethyl)amide of 6-(3-adamantan-1-yl-4-methoxyphenyl)naphthalene-2-carboxylic acid], the MIC was found to be 5.00 µM (≈ 2.41 µg/mL).
Same read-out and setting: the same measure for `COCOc1cc2c(cc1-c1cc(-c3ccc(C(=O)O)cc3)ccc1-c1ccccc1)C(C)(C)CCC2(C)C` [Compound 43, 2′-(3-Methoxymethoxy-5,5,8,8-tetramethyl-5,6,7,8-tetrahydronaphthalen-2-yl) [1,1′,4′,1″]terphenyl-4″-carboxylic acid]: 5.00 µM (≈ 2.6 µg/mL); for `CC1(C)CCC(C)(C)c2cc(-c3cc(-c4ccc(C(=O)O)cc4)ccc3-c3cccc(O)c3)ccc21` [Compound 44, 3-Hydroxy-2′-(5,5,8,8-tetramethyl-5,6,7,8-tetrahydronaphthalen-2-yl) [1,1′,4′,1″]terphenyl-4″-carboxylic acid]: 5.00 µM (≈ 2.38 µg/mL).

Another test relates to RAR receptor. Put plainly: Biological activity of RAR receptor antagonist / agonist type. To be noted: stated in words, no test described.
As to `COc1cccc(C=CC#Cc2ccc(C(=O)O)cc2)c1-c1ccc(C)cc1` [Compound 3, 4-[4-(6-Methoxy-4′-methylbiphenyl-2-yl)but-3-en-1-ynyl]benzoic acid], the “biological activity at RAR receptor (antagonist or agonist type)” value (“biological activity at RAR receptor” for short) is “RAR receptor antagonist type”.
On the same count and under the same terms, the same measure for `COc1ccc(C#Cc2cc(C(=O)O)cs2)cc1C12CC3CC(CC(C3)C1)C2` [Compound 7]: “RAR receptor agonist type”.
Consider `CC1(C)CCC(C)(C)c2cc(-c3cc(-c4ccc(C(=O)O)cc4)ccc3-c3ccc(O)cc3)ccc21` [Compound 9, 4-Hydroxy-2′(5,5,8,8-tetramethyl-5,6,7,8-tetrahydronaphthalen-2-yl) [1,1′,4′,1″]terphenyl-4″-carboxylic acid], for which the “biological activity at RAR receptor” value is listed as “RAR receptor agonist type”.
Take `CC1(C)CCC(C)(C)c2cc(-c3cc(-c4ccc(C(=O)O)cc4O)ccc3-c3ccccc3)ccc21` [Compound 10, 2″-Hydroxy-2′-(5,5,8,8-tetramethyl-5,6,7,8-tetrahydronaphthalen-2-yl) [1,1′,4′,1″]terphenyl-4″-carboxylic acid]: the “biological activity at RAR receptor” value is on record as “RAR receptor agonist type”.
Same read-out and setting: the result for `O=C(O)c1ccc2cc(-c3cc(Br)c(O)c(C45CC6CC(CC(C6)C4)C5)c3)ccc2c1` [Compound 11, 6-(3-Adamantan-1-yl-5-bromo-4-hydroxyphenyl)-naphthalene-2-carboxylic acid] reads “RAR receptor agonist type”; that for `CC1(C)CCSc2ccc(-c3cc(-c4ccc(C(=O)O)cc4)ccc3-c3ccccc3)cc21` [Compound 13, 2′-(4,4-Dimethylthiochroman-6-yl) [1,1′,4′,1″]terphenyl-4″-carboxylic acid], “RAR receptor agonist type”.
